“And” between values parts separate entries of the source, which are not always exact repeats. Identical values can stand only once. Like-named read-outs stand apart in the source and are kept apart here. One block for each molecule: values may come before it.
Assays:
[1] = test system: SCLC, breast, ovarian, endometrial cancer, NSCLC; settings: cited from earlier work
[2] = for HL, Mean: transformed into the natural logarithm
Method: (§1) Blood and plasma concentration–time profiles were analyzed by standard non-compartmental methods. Individual PK parameters were tabulated and summarized.
(§2) Both drugs were measured by validated liquid extraction methods followed by ultra-performance liquid chromatography tandem mass-spectrometry detection (Dynakin, Derio, Spain).

patients = settings: single-agent weekly paclitaxel; cited from earlier work
clinical = settings: human, in vivo
Method: as §1, §2

[3] = test system: patients with advanced solid tumors; settings: cited from earlier work
[4] = test system: patients with advanced solid tumors; assay: Dose escalation and dose-limiting toxicities (phase I, 3+3 design); settings: combination q3wk; paclitaxel on D1 and D8, lurbinectedin on D1
Method: Furthermore, during dose escalation lurbinectedin was converted to a body surface area (BSA)-based dose.
The DL5 cohort was then expanded, converting lurbinectedin to a BSA-based dose of 2.2 mg/m^2 (calculated by dividing 4.0 mg FD by a BSA of 1.8 m^2).
Patient accrual began in Group A, with dose escalation following a standard 3+3 design. […] During dose escalation in Group A, lurbinectedin was converted to a body surface area (BSA)-based dose (calculated by dividing the allocated FD by a BSA of 1.8 m^2).

[5] = Cycle 1, DL1: paclitaxel 60 / lurbinectedin 3.0 mg FD, mean (SD)
[6] = Cycle 1, DL2: paclitaxel 60 / lurbinectedin 4.0 mg FD, mean (SD)
[7] = Cycle 1, DL3: paclitaxel 60 / lurbinectedin 5.0 mg FD, mean (SD)
[8] = Cycle 1, DL4 (MTD): paclitaxel 80 / lurbinectedin 5.0 mg FD, mean (SD)
[9] = Cycle 1, DL5 (RD): paclitaxel 80 / lurbinectedin 2.2 mg/m^2, mean (SD)
[10] = Cycle 1, DL5 (RD): paclitaxel 80 / lurbinectedin 4.0 mg FD, mean (SD)
[11] = Cycle 1, RD + BEV 80 / 2.2 / 15, mean (SD)
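For CL in this document: blood and plasma drug levels in patients quantified by UPLC tandem mass spectrometry, with PK parameters derived by non-compartmental analysis of concentration–time profiles.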
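For Cmax in this document: blood and plasma drug levels in patients quantified by UPLC tandem mass spectrometry, with PK parameters derived by non-compartmental analysis of concentration–time profiles.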
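For potential drug-drug interaction: CL of each drug at the high AUC of the other drug in this document: blood and plasma drug levels in patients quantified by UPLC tandem mass spectrometry, with PK parameters derived by non-compartmental analysis of concentration–time profiles.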
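For variability of total clearance (CL) in this document: blood and plasma drug levels in patients quantified by UPLC tandem mass spectrometry, with PK parameters derived by non-compartmental analysis of concentration–time profiles.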

Molecule: Bevacizumab
- improvement in ORR with the addition of BEV to chemotherapy vs. chemotherapy alone ([1]; recurrent ovarian cancer and previously untreated NSCLC): 15–20%

- potential drug-drug interaction: CL of each drug at the high AUC of the other drug ([2]; human, in vivo): slight decrease
- variability of total clearance (CL) ([2]; human, in vivo): Wide variability
- Cmax ([2]; human, in vivo, 2.2 mg/m2): 3004 (971.4) μg/L
- CL ([2]; human, in vivo, 4 mg): 31.1 (6.2) L/h
- Cmax ([2]; human, in vivo, 4 mg): 2908 (482.2) μg/L
- Vss ([2]; human, in vivo, 4 mg): 315.3 (89.7) L
- Vz ([2]; human, in vivo, 4 mg): 639.9 (128.6) L
- CL ([2]; human, in vivo, 5 mg): 30.2 (8.6) L/h
- Cmax ([2]; human, in vivo, 5 mg): 3122 (1420) μg/L
- Vss ([2]; human, in vivo, 5 mg): 323.2 (266.8) L
- Vz ([2]; human, in vivo, 5 mg): 627.5 (185.2) L
- clearance (clinical; 2.2 mg/m2, CL): 525 mL/min
- Vd (clinical; 2.2 mg/m2, Vss): 324 L
- Vd (clinical; 2.2 mg/m2, Vz): 662 L
- clearance (clinical; 3 mg, CL): 437 mL/min
- Cmax (clinical; 3 mg): 2370 ng/mL
- Vd (clinical; 3 mg, Vss): 315 L
- Vd (clinical; 3 mg, Vz): 689 L
- half-life (clinical; 4 mg): 29.2 h
- clearance (clinical; 4 mg, CL): 487 mL/min
- Cmax (clinical; 4 mg): 1500 ng/mL
- Vd (clinical; 4 mg, Vss): 577 L
- Vd (clinical; 4 mg, Vz): 934 L
- clearance (clinical; 5 mg, CL): 575 mL/min
- Cmax (clinical; 5 mg): 1980 ng/mL
- Vd (clinical; 5 mg, Vss): 430 L
- Vd (clinical; 5 mg, Vz): 858 L
Molecule: CC(=O)O[C@H]1C(=O)[C@@]2(C)[C@H]([C@H](OC(=O)c3ccccc3)[C@]3(O)C[C@H](OC(=O)[C@H](O)[C@@H](NC(=O)c4ccccc4)c4ccccc4)C(C)=C1C3(C)C)[C@]1(OC(C)=O)CO[C@@H]1C[C@@H]2O [Paclitaxel]
- response rate ([1]; single-agent weekly 80 mg/m^2/week, metastatic breast cancer): 22–42%
- response rate ([1]; single-agent weekly 80 mg/m^2/week, relapsed ovarian cancer): 21–60%
- response rate ([1]; single-agent weekly 80 mg/m^2/week, relapsed/refractory SCLC): 20–27%
- incidence of peripheral neuropathy, grade 3/4 (patients): 3–21%

Molecule: COc1ccc2[nH]c3c(c2c1)CCN[C@]31CS[C@@H]2c3c(OC(C)=O)c(C)c4c(c3[C@H](COC1=O)N1[C@@H]2[C@H]2c3c(cc(C)c(OC)c3O)C[C@@H]([C@@H]1O)N2C)OCO4 [Lurbinectedin]
- AUC ([2]; Cycle 1, DL1: paclitaxel 60 mg/m^2 D1,D8,D15 / lurbinectedin 3.0 mg FD, mean (SD)): 405.9 (129.6) h* μg/L
- CL [2, 5]: 7.8 (2.2) L/h
- Cmax [2, 5]: 97.7 (45.5) μg/L
- HL (terminal half-life) [2, 5]: 52.8 (3.7) h
- Vss [2, 5]: 299.4 (84.4) L
- Vz [2, 5]: 602.1 (193.0) L
- AUC ([2]; Cycle 1, DL2: paclitaxel 60 mg/m^2 D1,D8,D15 / lurbinectedin 4.0 mg FD, mean (SD)): 357.9 (174.2) h* μg/L
- CL [2, 6]: 14.2 (9.4) L/h
- Cmax [2, 6]: 74.0 (18.9) μg/L
- HL (terminal half-life) [2, 6]: 82.1 (65.7) h
- Vss [2, 6]: 733.7 (415.1) L
- Vz [2, 6]: 1161 (563.2) L
- AUC ([2]; Cycle 1, DL3: paclitaxel 60 mg/m^2 D1,D8,D15 / lurbinectedin 5.0 mg FD, mean (SD)): 714.0 (416.3) h* μg/L
- CL [2, 7]: 8.8 (4.0) L/h
- Cmax [2, 7]: 127.0 (74.0) μg/L
- HL (terminal half-life) [2, 7]: 46.6 (15.5) h
- Vss [2, 7]: 343.2 (150.1) L
- Vz [2, 7]: 530.8 (164.6) L
- AUC ([2]; Cycle 1, DL4 (MTD): paclitaxel 80 mg/m^2 D1,D8 / lurbinectedin 5.0 mg FD, mean (SD)): 376.2 (151.4) h* μg/L
- CL [2, 8]: 15.2 (6.0) L/h
- Cmax [2, 8]: 109.5 (28.4) μg/L
- HL (terminal half-life) [2, 8]: 38.6 (8.3) h
- Vss [2, 8]: 401.8 (99.1) L
- Vz [2, 8]: 806.0 (243.4) L
- AUC ([2]; Cycle 1, DL5 (RD): paclitaxel 80 mg/m^2 D1,D8 / lurbinectedin 2.2 mg/m^2, mean (SD)): 440.5 (224.4) h* μg/L
- AUC ([2]; Cycle 1, DL5 (RD): paclitaxel 80 mg/m^2 D1,D8 / lurbinectedin 4.0 mg FD, mean (SD)): 436.2 (238.3) h* μg/L
- CL [2, 9]: 11.1 (5.3) L/h
- Cmax [2, 9]: 96.3 (34.7) μg/L
- HL (terminal half-life) [2, 9]: 49.3 (22.5) h
- Vss [2, 9]: 454.9 (222.6) L
- Vz [2, 9]: 727.6 (346.9) L
- CL [2, 10]: 12.0 (7.0) L/h
- Cmax [2, 10]: 83.9 (42.5) μg/L
- HL (terminal half-life) [2, 10]: 47.1 (23.0) h
- Vss [2, 10]: 420.9 (182.7) L
- Vz [2, 10]: 701.8 (268.9) L
- CL [2, 11]: 13.8 (6.5) L/h
- Cmax [2, 11]: 88.7 (28.9) μg/L
- HL (terminal half-life) [2, 11]: 40.0 (15.7) h
- Vss [2, 11]: 408.5 (161.7) L
- Vz [2, 11]: 724.9 (340.5) L
- AUC ([2]; Cycle 1, RD + BEV: paclitaxel 80 mg/m^2 / lurbinectedin 2.2 mg/m^2 / BEV 15 mg/kg, mean (SD)): 351.2 (175.9) h* μg/L
- differences in PK parameters in the presence or absence of BEV ([2]; RD in Group A vs Group B, Cycle 1): No statistically significant differences
- variability of total clearance (CL) ([2]; all dose levels): Wide variability
- dose linearity of maximum concentration (Cmax) and AUC ([2]; dose levels 3.0–5.0 mg FD in combination with paclitaxel): No dose linearity could be established
- potential drug-drug interaction: CL of each drug at the high AUC of the other drug ([2]; paclitaxel with lurbinectedin): slight decrease
- HL, Mean ([2]; Cycle 1, Group A at the RD (31 patients)): 3.802
- HL, Mean ([2]; Cycle 1, Group B with BEV (12 patients)): 3.603
- recommended dose (RD), single-agent ([3]; 1-h i.v. infusion q3wk): 7.0 mg flat dose (FD) and 7 mg flat dose (FD)
- median half-life ([3]; single agent at the RD (7 mg FD)): 70.6 h
- response rate ([1]; monotherapy, BRCA-unselected breast cancer): 9%
- response rate ([1]; monotherapy, ovarian cancer): 14–23%
- response rate ([1]; monotherapy, second-line treatment of patients with SCLC): 35%
- recommended dose (RD) [4]: 2.2 mg/m^2

Reference: paper PMC9652263 (Investigational New Drugs, 2022)
